Where “and” joins values, the source holds several entries; their conditions need not be identical. Identical values can stand only once.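 Compound exposure: 48 hours, 5 concentrations, 96-well plates. GI50: concentration for 50% inhibition of growth. At the TGI there is no net growth.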
Assays:
Assay in all cases: NCI tumour cell line growth inhibition, 48 h
ACHN renal = system: ACHN renal
HCT-15 colon = system: HCT-15 colon
OVCAR-5 ovarian = system: OVCAR-5 ovarian
RPMI-8226 leukemia = system: RPMI-8226 leukemia
SF-295 CNS = system: SF-295 CNS
SK-OV-3 ovarian = system: SK-OV-3 ovarian
SW-620 colon = system: SW-620 colon
U251 CNS = system: U251 CNS
K-562 leukemia = system: K-562 leukemia
MDA-MB-231 breast = system: MDA-MB-231 breast

Compound | TGI (ACHN renal) [µM] | TGI (HCT-15 colon) [µM] | TGI (OVCAR-5 ovarian) | TGI (RPMI-8226 leukemia) | TGI (SF-295 CNS) [µM] | TGI (SK-OV-3 ovarian) | TGI (SW-620 colon) | TGI (U251 CNS) | TGI (K-562 leukemia) [µM] | GI50 (ACHN renal) [µM] | GI50 (HCT-15 colon) [µM] | GI50 (K-562 leukemia) [µM] | GI50 (MDA-MB-231 breast) [µM] | TGI (MDA-MB-231 breast) [µM] | GI50 (OVCAR-5 ovarian) [µM] | GI50 (RPMI-8226 leukemia) [nM] | GI50 (SK-OV-3 ovarian) [µM] | GI50 (SW-620 colon) [µM] | GI50 (U251 CNS) [µM] | GI50 (SF-295 CNS) [µM]
O=C1CN(c2cccc(Cl)c2)C(=O)CN1CCN1CC(=O)N(c2cccc(Cl)c2)CC1=O | > 100 | > 100 | > 100 µM | > 100 µM | > 100 | > 100 µM | > 100 µM | > 100 µM | – | – | – | – | – | – | – | – | – | – | – | –
O=C1C=CC(=O)c2nc3c(cc21)CCC3 | 33.1 | – | > 100 µM | – | > 100 | – | 31.1 µM | > 100 µM | 39.3 | – | – | – | – | – | – | – | – | – | – | –
Cc1cc(I)cc(CN(CCCN(C)C)C(C)C)c1O | 31.6 | 39.5 | 53.5 µM | 26.7 µM | – | 30.9 µM | 31.6 µM | 36.1 µM | 34.7 | 17.3 | 17.5 | 16.3 | 18.1 | 43.6 | 19.7 | 11500 | 15.1 | 17.3 | 18.5 | –
c1ccc(NCn2cnc3ccccc32)cc1 | > 100 | > 100 | > 100 µM | 71.6 µM | > 100 | > 100 µM | > 100 µM | > 100 µM | > 100 | – | – | – | – | – | – | – | – | – | – | –
CC1=C2C(=C[C@@](C)(CO)[C@@H]2O)C(=O)[C@](C)(O)C12CC2 | 0.0878 | 0.0344 | 0.0664 µM and 0.0689 µM | 6.09 µM and 12.3 µM | – | 0.0302 µM and 0.0394 µM | 0.074 µM and 0.129 µM | 0.0243 µM and 0.0794 µM | – | 0.0189 | – | 0.0222 | 0.503 | – | – | 1150 | – | – | – | –
CCOC(=O)C1=C(C(=O)OCC)C2c3ccccc3C=CN2C(C(=O)OCC)=C(SC)S1 (stereo not given) | > 100 | > 100 | > 100 µM | > 100 µM | > 100 | > 100 µM | > 100 µM | > 100 µM | > 100 | – | – | – | – | – | – | – | – | – | – | –
CN(C)CCn1c2c3ccccc3ccc2c2oc(=O)c3ccccc3c21 | 18.4 | 46.9 | 90.4 µM | 43.2 µM | 20.8 | 7.35 µM | 32.4 µM | 20 µM | > 100 | – | – | – | – | – | – | – | – | – | – | –
O=C(Oc1ccc(Cl)cc1)c1ccccc1Nc1ccnc(C(F)(F)F)c1 | 33.1 | 5.13 | 84.4 µM | 8.28 µM | > 100 | – | 63.3 µM | – | 87.8 | 10.8 | 2.07 | 3.65 | 1.78 | 7.04 | 25.6 | 2870 | – | 6.66 | – | 62.8
COc1ccc(OC)c(N2CC(N)C2=O)c1 (stereo not given) | > 100 | > 100 | – | > 100 µM | > 100 | > 100 µM | > 100 µM | > 100 µM | > 100 | – | – | – | – | – | – | – | – | – | – | –
Cc1cc2c(C)[nH]nc2c(C(=O)O)c1C | > 100 | > 100 | – | > 100 µM | > 100 | – | > 100 µM | > 100 µM | > 100 | – | – | – | – | – | – | – | – | – | – | –
COc1cc(-c2ccc3cc(OC)c(OC)c(OC)c3c2)cc(OC)c1OC | > 100 | > 100 | > 100 µM | – | – | > 100 µM | – | > 100 µM | > 100 | 40.2 | 6.03 | 5.07 | 8.91 | > 100 | > 100 | – | 34.4 | – | 15.7 | –
O=S(=O)(N/N=C/c1cccc(/C=N/NS(=O)(=O)c2ccccc2)c1)c1ccccc1 | > 100 | > 100 | > 100 µM | > 100 µM | > 100 | > 100 µM | – | > 100 µM | > 100 | – | – | – | – | – | – | – | – | – | – | –
O=c1c(-c2ccccc2)c2oc(c1-c1ccccc1)CSCc1cccc(c1)CSC2 | > 100 | > 100 | > 100 µM | > 100 µM | > 100 | 70.1 µM | > 100 µM | 88.2 µM | > 100 | – | – | – | – | – | – | – | – | – | – | –
CC(=O)O/N=C(/C)c1ccccc1O | > 100 | – | > 100 µM | > 100 µM | > 100 | > 100 µM | > 100 µM | > 100 µM | > 100 | – | – | – | – | – | – | – | – | – | – | –
CC1(C)OC1COc1c2occc2cc2ccc(=O)oc12 (stereo not given) | > 100 | > 100 | > 100 µM | > 100 µM | > 100 | – | > 100 µM | > 100 µM | > 100 | – | – | – | – | > 100 | – | – | – | – | – | –
CC(=O)NNc1nc(C)c(C(=O)/C=C/c2ccc(NC(C)=O)cc2)s1 | > 100 | > 100 | > 100 µM | > 100 µM | > 100 | > 100 µM | > 100 µM | > 100 µM | > 100 | – | – | – | – | – | – | – | – | – | – | –
CC(C)=CCC(O)C1=CC(=O)c2c(O)ccc(O)c2C1=O (stereo not given) | 1.86 | 0.526 | 3.89 µM | – | 9.3 | 24 µM | 3.3 µM | 4.74 µM | 0.602 | – | – | – | – | 4.71 | – | – | – | – | – | –
C/C(CCn1[nH]c(=O)ccc1=O)=N\NC(=O)C(=O)NN | > 100 | > 100 | > 100 µM | > 100 µM | > 100 | > 100 µM | > 100 µM | – | > 100 | – | – | – | – | – | – | – | – | – | – | –
N#CC(C#N)=C/C=C(\Sc1nc2ccccc2s1)c1ccc(Cl)cc1 | > 35.5 | > 44.2 | 21.5 µM | – | 27.7 | > 42.2 µM | – | 36.4 µM | > 24.6 | 4.61 | 6.72 | 1.45 | 5.87 | 22.3 | 7.02 | – | 11.9 | 0.41 | 6.82 | 8.9
CC(=O)OCCOCNC(=S)N/N=C(\C)c1cnccn1 | 86.3 | > 100 | 40.5 µM | > 100 µM | > 100 | > 100 µM | > 100 µM | > 100 µM | > 100 | – | – | – | – | – | – | – | – | – | – | –
Cc1ccc(/C=C/C(=O)c2cccc3ccccc23)cc1 | 30.7 | 35.3 | 27.5 µM | > 100 µM | 31.7 | 62.5 µM | 26.2 µM | 25.6 µM | 44.3 | – | – | – | – | – | – | – | – | – | – | –
